A melting point compilation (Tetko et al.; mined from patent text by program, amines drawn as free bases though some values may be those of a salt)

With `O=C1OCC(CNC2CCCCC2)C1(c1ccccc1)c1ccccc1` (centres undefined) the melting point was 129 to 131 °C.
`CCC=C(c1ccccc1N1CCCCC1)C(C(N)=O)c1ccc(C(=O)OCC)cc1` (centres undefined) gave a melting point of 115 to 117 °C.
`O=c1[nH]c2ccccc2n1CC1CCN(CC(O)COc2ccc(Cl)cc2)C1` (centres undefined) gave a melting point of 129 °C.
Compound `Cn1cc(OS(C)(=O)=O)c(=O)c2ccc(S(C)(=O)=O)cc21` has a melting point of 258 to 260 °C.
For `CCc1ccc(-c2ccc(-c3ccc(CC)s3)c(F)c2)cc1`, the melting point was 67 °C.
`CC(C)OC(=O)c1nc2ccc(OCCCN3CCC(OC(c4ccccc4)c4ccccc4)CC3)nn2n1` showed a melting point of 126 to 127 °C.
Work on `NC(=O)C1CCN(c2ncncc2Cl)CC1` yielded a melting point of 201 to 202 °C.
For `COc1cn(-c2ccc(N3CCOCC3)cc2F)nc(-c2ccnn2-c2ccccc2)c1=O`, the melting point was 226 to 228 °C.
Work on `O=C(O)Cc1ccccc1N1CCOCC1` yielded a melting point of 128 °C.
In the case of `CNC1=Nc2ccc(Cl)cc2N(c2ccccc2)C(=O)C1`, the melting point is reported as 215 to 217 °C.
With `Cc1nc(-n2cc(-c3ccccc3)nn2)sc1C(=O)NCc1ccccc1` the melting point was 175 to 178 °C.
`Cc1cccc2nc3c(=O)[nH][nH]c(=O)c3c(O)c12` showed a melting point of 167 to 168 °C.
`COC(=O)C(=O)N(N=C(C#N)c1ccc(C#N)cc1)c1c(Cl)cc(C(F)(F)F)cc1Cl` showed a melting point of 194 to 195 °C.
Work on `CC(c1ccc2c(c1)[nH]c1ccccc12)n1ccnc1` (centres undefined) yielded a melting point of 157 to 158 °C.
Compound `CCCn1ncc2c(=O)[nH]c(-c3cc(C(=O)N4CCN(C)CC4)ccc3OCC)nc21` has a melting point of 124 to 127 °C.
Compound `COC(=O)C1=C(SCc2ccc(OC)cc2)C2=C(CC=CC=C2)CC1` has a melting point of 79 to 81 °C.
`COc1cc(OC)c2c(=O)[nH]c(-c3ccc(OCCN4CCCC4)c(C)c3)nc2c1` gave a melting point of 230 to 231 °C.
With `Cc1nn(-c2cc(Oc3ccc(OC(C)C(=O)O)cn3)c(Cl)cc2F)c(=O)n1C(F)F` (centres undefined) the melting point was 49 to 51 °C.
For `Cc1nc2cnccc2n1-c1ccc2c(c1)CC(C(=O)O)C2` (centres undefined), the melting point was 264 to 267 °C.
With `CCCNS(=O)(=O)c1cc(C(=O)CCC(=O)O)ccc1Cl` the melting point was 106 °C.
Work on `Cc1ccc2nc(-c3ccc4nc(N)sc4c3)sc2c1` yielded a melting point of 250 to 251 °C.
`COc1ccccc1-c1nn(C(C)C(=O)N(C)C)cc1Cl` (centres undefined) showed a melting point of 74 to 77 °C.
Compound `CC(=O)Nc1ccc(CN(C)C2CCOCC2)cc1` has a melting point of 105 to 106 °C.
`CC(=O)OC[C@@H]1C=C[C@H](n2cnc3c(=O)[nH]c(N)nc32)C1` gave a melting point of 247 to 249 °C.
In the case of `COC(=O)C(c1ccccc1)N1CCN(c2ccc([N+](=O)[O-])cc2)CC1` (centres undefined), the melting point is reported as 92 °C.
`CCCCn1cc(C(=O)OCC)c(NC(=S)Nc2ccccc2)n1` gave a melting point of 93 to 95 °C.
With `O=C(O)CCCCCCC1=C(C=Cc2ccccc2)C(=O)CC1` the melting point was 118 to 120 °C.
For `N#Cc1ccc(OCCCCCOc2ccc(-c3cc4ccc(C#N)cc4o3)cc2)cc1`, the melting point was 165 to 167 °C.
In the case of `CC(C)c1noc2c1C(=O)N(C(C)(C)C)C2=O`, the melting point is reported as 60 to 62 °C.
With `CNC(=C[N+](=O)[O-])NCCCCCCCCCCCCN` the melting point was 123 to 125 °C.
For `COC(=O)C(Oc1ccc(F)cc1)c1ccc(Sc2ccc(Cl)cc2)cc1` (centres undefined), the melting point was 84.5 to 87 °C.
For `CC(C)c1nn(-c2ccc(C(F)(F)F)cn2)cc1CCCOc1ccccc1CC(=O)O`, the melting point was 132 to 133 °C.
`CCc1nc(-c2ncn3c2CCCc2ccccc2-3)no1` showed a melting point of 151 °C.
Compound `Cc1ccc(N2C(=O)C(O)=C(C(=O)c3ccc(C4CCCCC4)cc3)C2c2ccc(OC(F)(F)F)cc2)nn1` (centres undefined) has a melting point of 283 to 286 °C.
`OC1CCN(c2nnc(-c3ccc(Cl)cc3)c(-c3ccc(Cl)cc3)n2)CC1` showed a melting point of 102 to 105 °C.
`c1ccc(CN2CCN(c3n[nH]c4c3CCc3ccccc3-4)CC2)cc1` showed a melting point of 254 to 256 °C.
For `COc1cccc([C@H]2O[C@H](CC(=O)Nc3cc(C(=O)O)ccc3C)C(=O)N(CC(C)(C)CO)c3ccc(Cl)cc32)c1OC`, the melting point was 172 to 173 °C.
In the case of `NC(=O)c1nnn(Cc2ccc(C(=O)c3ccc(Cl)cc3)cc2)c1N`, the melting point is reported as 229 to 231 °C.
`COc1ccc(C#N)cc1C(=O)NCCN1CCC(=C(O)c2ccc(F)cc2)CC1` gave a melting point of 135 to 137 °C.
